This passage reports inhibition of growth results from ChEMBL document CHEMBL3045387, “Synthesis and Fungicidal Activity of New 1, 3, 2-Oxazaphospholidine 2-Sulfides” (1994).

The structures appear in SMILES notation.

Holding throughout (format): functional
What all share (conditions): 96 h, read-out: GI

Test [1] relates to Pythium. The test can be described thus: Antimicrobial activity against Pythium sp. assessed as inhibition of mycelial growth on potato dextrose agar at 1000 ppm at 27 degC measured after 4 days.
In test [2] the test system is Corticium. The test can be described thus: Antimicrobial activity against Corticium sp. assessed as inhibition of mycelial growth on potato dextrose agar at 1000 ppm at 27 degC measured after 4 days.
The test system of test [3] is Corticium. The test can be described thus: Antimicrobial activity against Corticium sp. assessed as inhibition of mycelial growth on potato dextrose agar at 100 ppm at 27 degC measured after 4 days.
For test [4], the system named is Pythium. The test can be described thus: Antimicrobial activity against Pythium sp. assessed as inhibition of mycelial growth on potato dextrose agar at 100 ppm at 27 degC measured after 4 days.

In the case of `CC1(C)C2CCC1(C)C(O)C2` (centres undefined) [BORNEOL], the inhibition of growth at 1000 ppm in the test with Pythium [1] and in the test with Corticium [2] was 100% throughout. The figures for the inhibition of growth at 100 ppm with Corticium [3] and in the test on Pythium [4] were 27.7% and 21.1%, respectively.

For the compound `CC12CCC(CC1)C(C)(C)O2` [EUCALYPTOL], the inhibition of growth at 1000 ppm in the test with Pythium [1] turned out to be 0.4%; in the test on Corticium [2] it was 0%. For the same compound, the inhibition of growth at 100 ppm was 8.3% in the test with Corticium [3] and 0% with Pythium [4].

In the case of `COC(=O)/C=C/c1ccccc1` [E-METHYL CINNAMATE], the inhibition of growth at 1000 ppm in the test on Pythium [1] and in the test on Corticium [2] was 100% each time. For the same compound, the inhibition of growth at 100 ppm is 54% in the test with Corticium [3] and 66% in the test with Pythium [4].

Turning to `Cc1ccc(OP2(=S)N[C@@H](C(C)C)CO2)c(C(C)C)c1` (some centres undefined), the values for the inhibition of growth at 100 ppm in the test on Corticium [3] and in the test on Pythium [4] were 0% and 24.3%, respectively.

On to `C=CCc1ccc(OP2(=S)N[C@@H](CC(C)C)CO2)c(OC)c1` (some centres undefined), for which the inhibition of growth at 100 ppm with Corticium [3] was 0.8%; in the test with Pythium [4] it was 9.9%.

In the case of `Cc1ccc(C(C)C)c(OP2(=S)N[C@@H](C)CO2)c1` (some centres undefined), the inhibition of growth at 100 ppm in the test on Corticium [3] and in the test on Pythium [4] was 0% throughout.

As to `Cc1ccc(O)c(C(C)C)c1` [ISOTHYMOL], the inhibition of growth at 1000 ppm in the test with Pythium [1] and in the test with Corticium [2] was 100% each time. In addition, the inhibition of growth at 100 ppm came to 72.4% with Corticium [3] and 94.3% with Pythium [4].

On to `CC[C@H](C)[C@H]1COP(=S)(Oc2ccc(C)cc2C(C)C)N1` (some centres undefined), for which the inhibition of growth at 100 ppm with Corticium [3] was 0%; with Pythium [4] it was 12.5%.

As for `Cc1ccc(C(C)C)c(OP2(=S)N[C@@H](CC(C)C)CO2)c1` (some centres undefined), the results for the inhibition of growth at 1000 ppm in the test on Pythium [1] and in the test on Corticium [2] were 36.1% and 77.1%, respectively. In addition, the inhibition of growth at 100 ppm was 36.8% with Corticium [3] and 19.8% in the test with Pythium [4].

With `CC[C@H](C)[C@H]1COP(=S)(Oc2cc(C)ccc2C(C)C)N1` (some centres undefined), the inhibition of growth at 100 ppm in the test on Corticium [3] stood at 0%; in the test on Pythium [4] it was 3.7%.

On to `CC12CCC(CC1=O)C2(C)C` (centres undefined) [CAMPHOR], for which the inhibition of growth at 1000 ppm was 9.3% in the test with Pythium [1] and 22.1% with Corticium [2]. Further, the inhibition of growth at 100 ppm in the test on Corticium [3] amounted to 0.4%; with Pythium [4], 0%.

Consider `CC1=CC[C@@H](C(C)(C)O)CC1` [ALPHA-TERPINEOL], for which the inhibition of growth at 1000 ppm in the test on Pythium [1] and with Corticium [2] was 100% in each case. Besides, the inhibition of growth at 100 ppm was 71.8% with Corticium [3] and 11.2% in the test with Pythium [4].

With `CC(C)=CCC/C(C)=C/COP1(=S)N[C@@H](CC(C)C)CO1` (some centres undefined), the inhibition of growth at 1000 ppm in the test on Pythium [1] worked out at 100%; in the test on Corticium [2], 97.9%. Moreover, the values for the inhibition of growth at 100 ppm with Corticium [3] and in the test on Pythium [4] were 26.7% and 35.4%, respectively.

Turning to `CC(C)=CCCC(C)CCOP1(=S)N[C@@H](Cc2ccccc2)CO1` (some centres undefined), the results for the inhibition of growth at 1000 ppm in the test on Pythium [1] and in the test with Corticium [2] were 30.8% and 66.8%, respectively. Besides, the inhibition of growth at 100 ppm in the test with Corticium [3] is 21.1%; with Pythium [4], 1.6%.

For `CC(C)=CCCC(C)CCO` (centres undefined) [CITRONELLOL], the inhibition of growth at 1000 ppm in the test with Pythium [1] and with Corticium [2] was 100% each time. The results for the inhibition of growth at 100 ppm in the test with Corticium [3] and in the test on Pythium [4] were 23.9% and 68.9%, respectively.

For `C=C1CCC2CC1C2(C)C` (stereo not drawn) [BETA-PINENE], the figures for the inhibition of growth at 1000 ppm in the test on Pythium [1] and in the test with Corticium [2] were 2.2% and 16.3%, respectively. For the same compound, the inhibition of growth at 100 ppm in the test with Corticium [3] amounted to 1.2%; in the test on Pythium [4], 0%.

Take `CC(C)=CCCC(C)CCOP1(=S)N[C@@H](C)CO1` (some centres undefined): the inhibition of growth at 100 ppm with Corticium [3] and in the test on Pythium [4] was 0% each time.

With `CC(C)=CCC/C(C)=C/CO` [GERANIOL], the inhibition of growth at 1000 ppm with Pythium [1] and in the test on Corticium [2] was 100% throughout. In addition, the figures for the inhibition of growth at 100 ppm in the test with Corticium [3] and in the test with Pythium [4] were 71.8% and 63.3%, respectively.

In the case of `Cc1ccc(OP2(=S)N[C@@H](CC(C)C)CO2)c(C(C)C)c1` (some centres undefined), the results for the inhibition of growth at 1000 ppm in the test with Pythium [1] and in the test on Corticium [2] were 58.2% and 64.3%, respectively. In addition, the inhibition of growth at 100 ppm in the test on Corticium [3] was found to be 14.6%; with Pythium [4] it was 11.7%.

For `CC[C@H](C)[C@H]1COP(=S)(OCCC(C)CCC=C(C)C)N1` (some centres undefined), the inhibition of growth at 100 ppm in the test on Corticium [3] and in the test with Pythium [4] was 0% in each case.

In the case of `Cc1ccc(C(C)C)cc1` [P-CYMENE], the inhibition of growth at 1000 ppm stood at 0.2% in the test with Pythium [1] and 13.6% in the test with Corticium [2]. For the same compound, the inhibition of growth at 100 ppm with Corticium [3] is 14.4%; in the test on Pythium [4], 0%.

Consider `CC(C)=CCCC(C)CCOP1(=S)N[C@@H](C(C)C)CO1` (some centres undefined), for which the figures for the inhibition of growth at 100 ppm in the test on Corticium [3] and in the test on Pythium [4] were 42.6% and 87.3%, respectively.

Take `CC(C)=CCC/C(C)=C/COP1(=S)N[C@@H](Cc2ccccc2)CO1` (some centres undefined): the inhibition of growth at 1000 ppm was 16.9% with Pythium [1] and 60.4% in the test with Corticium [2]. The inhibition of growth at 100 ppm is 28.5% in the test on Corticium [3] and 4% in the test with Pythium [4].

As for `CC1(C)C2CC=C(CO)C1C2` (centres undefined) [MYRTENOL], the inhibition of growth at 1000 ppm in the test with Pythium [1] and in the test on Corticium [2] was 100% in each case. The inhibition of growth at 100 ppm with Corticium [3] was determined as 56%; with Pythium [4] it was 41%.

With `CC(C)=CCC/C(C)=C/COP1(=S)N[C@@H](C(C)C)CO1` (some centres undefined), the inhibition of growth at 100 ppm in the test with Corticium [3] amounted to 68.6%; in the test on Pythium [4], 68.2%.

As to `CC(C)c1ccc(C=O)cc1` [CUMINALDEHYDE], the inhibition of growth at 1000 ppm in the test with Pythium [1] and with Corticium [2] was 100% each time. For the same compound, the results for the inhibition of growth at 100 ppm with Corticium [3] and in the test with Pythium [4] were 22% and 14%, respectively.

In the case of `CC[C@H](C)[C@H]1COP(=S)(OC/C=C(\C)CCC=C(C)C)N1` (some centres undefined), the inhibition of growth at 100 ppm in the test with Corticium [3] and in the test on Pythium [4] was 0% throughout.

Consider `C=CCc1ccc(OP2(=S)N[C@@H](C(C)C)CO2)c(OC)c1` (some centres undefined), for which the inhibition of growth at 100 ppm with Corticium [3] worked out at 37.5%; with Pythium [4], 53.9%.

For the compound `C=CC(C)(O)CCC=C(C)C` (centres undefined) [LINALOOL], the inhibition of growth at 1000 ppm in the test on Pythium [1] worked out at 67.4%; in the test on Corticium [2], 93.9%. Moreover, the inhibition of growth at 100 ppm was 46.9% with Corticium [3] and 21.3% in the test on Pythium [4].

As for `CC1=CCC(O)(C(C)C)CC1` (centres undefined) [TERPINEOL], the inhibition of growth at 1000 ppm in the test on Pythium [1] and in the test on Corticium [2] was 98.3% in each case. The inhibition of growth at 100 ppm in the test with Corticium [3] stood at 0%; in the test on Pythium [4], 7.1%.

On to `Cc1ccc(C(C)C)c(OP2(=S)N[C@@H](Cc3ccccc3)CO2)c1` (some centres undefined), for which the inhibition of growth at 1000 ppm with Pythium [1] was 46%; with Corticium [2], 41%. Further, the inhibition of growth at 100 ppm in the test on Corticium [3] came to 33.8%; with Pythium [4], 19.8%.

`C=CCc1ccc(O)c(OC)c1` [EUGENOL]: the inhibition of growth at 1000 ppm in the test with Pythium [1] and in the test on Corticium [2] was 100% in each case. Also, the inhibition of growth at 100 ppm with Corticium [3] was 67.6%; in the test on Pythium [4], 92.7%.

`C=CCc1ccc(OP2(=S)N[C@@H]([C@@H](C)CC)CO2)c(OC)c1` (some centres undefined): the results for the inhibition of growth at 100 ppm in the test with Corticium [3] and in the test on Pythium [4] were 25.3% and 41.7%, respectively.

Turning to `Cc1ccc(OP2(=S)N[C@@H](Cc3ccccc3)CO2)c(C(C)C)c1` (some centres undefined), the inhibition of growth at 1000 ppm in the test on Pythium [1] was determined as 58.2%; in the test with Corticium [2], 36%. The inhibition of growth at 100 ppm in the test on Corticium [3] was determined as 15.3%; in the test on Pythium [4] it was 9.4%.

As for `Cc1ccc(C(C)C)c(OP2(=S)N[C@@H](C(C)C)CO2)c1` (some centres undefined), the results for the inhibition of growth at 100 ppm in the test with Corticium [3] and with Pythium [4] were 18.7% and 29.8%, respectively.

Consider `CC(C)=CCC/C(C)=C/COP1(=S)N[C@@H](C)CO1` (some centres undefined), for which the inhibition of growth at 100 ppm worked out at 22.7% with Corticium [3] and 20.2% in the test on Pythium [4].

For `CC(=O)CCc1ccccc1` [BENZYLACETONE], the inhibition of growth at 1000 ppm in the test with Pythium [1] and in the test on Corticium [2] was 100% each time. The figures for the inhibition of growth at 100 ppm in the test with Corticium [3] and in the test on Pythium [4] were 30.5% and 24.5%, respectively.

`CC(C)=CCCC(C)CCOP1(=S)N[C@@H](CC(C)C)CO1` (some centres undefined): the inhibition of growth at 1000 ppm is 53.9% in the test with Pythium [1] and 82.9% with Corticium [2]. Moreover, the inhibition of growth at 100 ppm is 26.7% with Corticium [3] and 24.7% with Pythium [4].

Regarding `Cc1ccc(C(C)C)c(O)c1` [THYMOL], the inhibition of growth at 1000 ppm in the test with Pythium [1] and in the test on Corticium [2] was 100% throughout. For the same compound, the inhibition of growth at 100 ppm in the test on Corticium [3] was 71%; in the test with Pythium [4], 93%.

In the case of `CC1=CCC2CC1C2(C)C` (stereo not drawn) [ALPHA-PINENE], the results for the inhibition of growth at 1000 ppm in the test on Pythium [1] and in the test on Corticium [2] were 0% and 46.3%, respectively. The inhibition of growth at 100 ppm in the test with Corticium [3] worked out at 0.8%; in the test on Pythium [4], 4%.

In the case of `Cc1ccc(OP2(=S)N[C@@H](C)CO2)c(C(C)C)c1` (some centres undefined), the inhibition of growth at 100 ppm worked out at 31.7% in the test with Corticium [3] and 10.8% with Pythium [4].
